Laboratory results reported in patent US10695279B2, “Peptide having skin-whitening activity and use thereof” (CAREGEN CO., LTD., priority 2017, dated 2020).

Legend:
[1] = molecular target: T1, tyrosinase (Mus musculus, UniProt P11344); experiment: Measurement of tyrosinase activity in cells (L-dopa, absorbance at 475 nm); format: cell-based; conditions: B16F10, α-MSH (200 ng/ml), peptide 50, 100, 200 uM, 72 hours; dose-dependent, **P≤0.01; FIG. 4
T1 construct: endogenous in cells; host or cells: B16F10 mouse melanoma cells
T1 sequence (P11344 19-533): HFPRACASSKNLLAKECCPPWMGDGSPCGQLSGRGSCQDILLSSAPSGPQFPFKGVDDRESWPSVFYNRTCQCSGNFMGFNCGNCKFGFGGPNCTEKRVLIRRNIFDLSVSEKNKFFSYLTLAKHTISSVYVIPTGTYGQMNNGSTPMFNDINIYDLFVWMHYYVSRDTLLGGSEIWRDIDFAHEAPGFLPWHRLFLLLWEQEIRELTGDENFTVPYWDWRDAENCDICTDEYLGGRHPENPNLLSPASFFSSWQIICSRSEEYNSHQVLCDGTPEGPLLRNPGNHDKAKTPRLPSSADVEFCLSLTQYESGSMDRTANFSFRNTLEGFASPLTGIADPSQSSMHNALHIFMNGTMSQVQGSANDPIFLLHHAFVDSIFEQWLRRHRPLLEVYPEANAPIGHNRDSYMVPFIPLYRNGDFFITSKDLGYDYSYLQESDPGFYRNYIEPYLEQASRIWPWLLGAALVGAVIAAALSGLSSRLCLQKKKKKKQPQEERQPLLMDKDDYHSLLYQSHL
Procedure: The 6-well culture plates were loaded on ice and washed with cool PBS, and then 300 μl of 0.1 M sodium phosphate buffer (pH 6.8 lysis buffer) containing 1% Triton X-100 was added. The cells were collected in a 1.5 mL tube, and then cell membranes were disrupted by repeating rapid-freezing at […] and thawing, five times. Then, the tube was centrifuged at 13,000 rpm for 20 minutes, and then the supernatant was collected in another 1.5 mL tube, and the protein content of the samples was quantified. The samples were diluted to have the same protein concentration and then dispensed in three wells each in a 96-well culture plate, and then 20 μl of 10 mM L-dopa was added, followed by incubation at 37° C. for 1 hour.

[2] = system: human keratinocyte line (HaCaT); conditions: melanosomes isolated from B16F10, peptide 10, 50, 100, 200 uM, 48 hours, FIG. 10
Procedure: After human keratinocyte line (HaCaT) was cultured in 6-well culture plates for 24 hours, the melanosomes isolated from mouse melanoma cell line (B16F10) were pretreated for 3 hours in serum-free culture medium, and then the cells were treated with the present peptide at different concentrations (10, 50, 100, 200 uM) or arbutin (200 uM) as a positive control, followed by incubation for 48 hours. Then, the plates were washed with PBS to remove un-transferred melanosomes, and 1 N NaOH was added to pellets, which had been obtained through cell collection and precipitation. Then, 1 M NaOH was added to the pellets, and the pellets were dissolved in an oven at 80° C., and then the OD value at 490 nm was measured.

[3] = system: melanin-forming cells (B16F10 cell line); conditions: B16F10, α-MSH (200 ng/ml), peptide 50, 100, 200 uM, 72 hours; dose-dependent; FIG. 3
Procedure: After melanin-forming cells (B16F10 cell line) dispensed in 6-well culture plates were incubated in a 37° C. incubator for 24 hours, the medium for each plate was removed and replaced with new medium (10% serum medium). Then, the cells were treated with α-MSH (200 ng/ml), arbutin (500 uM), or the peptide of the present invention at different concentrations (50, 100, 200 uM). The cells were incubated for 72 hours, and then the formed melanin was observed through an optical microscope.

[4] = system: human keratinocyte line (HaCaT); conditions: melanosomes pretreated 48 hours, peptide 100, 200 uM, dose-dependent, FIG. 13
Procedure: After human keratinocyte line (HaCaT) was cultured in 6-well culture plates for 24 hours, melanosomes isolated from mouse melanoma cell line (B16F10) were pretreated for 48 hours in serum-free culture medium. The plates were washed with PBS to remove un-transferred melanosomes, and then the cells were treated with the peptide at different concentrations (100, 200 uM) or arbutin (200 uM) as a positive control, and TGFβ-1, followed by incubation for 48 hours. In order to measure the degradation of melanosomes phagocytized into keratinocytes, 1 M NaOH was added to pellets obtained by keratinocyte collection and precipitation, and the pellets were dissolved in an oven at 80° C., and then the OD value at 490 nm was measured.

[5] = system: C57BL/6 mice; experiment: In vivo whitening effect, application to the tail; conditions: C57BL/6 mice tail skin, liposomal peptide 5,000 ppm once a day, about 8 weeks, F&M staining, versus control group; FIGS. 14b and 14c
Procedure: Liposomal peptide (5,000 ppm) or arbutin as a positive control was applied to the tail of 8-week-old C57BL/6 mice once a day, and the experiment was conducted for about 8 weeks. After the completion of the experiment, the mice were sacrificed to extract tail skin tissues, which were then embedded in paraffin to manufacture paraffin blocks. Then, the paraffin blocks were made into paraffin sections and morphologically observed through Fontana-Masson staining.

[6] = system: MITF; conditions: B16F10, α-MSH (200 ng/ml), peptide 100, 200 uM, 24 hours, PCR; FIG. 6
Procedure: (§1) After melanin-forming cells (B16F10 cell line) were incubated in 6-well culture plates for 24 hours, the cells were treated with α-MSH (200 ng/ml), arbutin (500 uM), or the present peptide at different concentrations (100, 200 uM). After RNA was extracted from the cells incubated for 24 hours, cDNA was prepared. Then, PCR was conducted using the primers shown in Table 2 below, which are specific to MITF, tyrosinase, and TRP1, respectively, as melanogenesis-involved factors, and then the change in the expression of each gene was observed.

[7] = system: TRP1; conditions: B16F10, α-MSH (200 ng/ml), peptide 100, 200 uM, 24 hours, PCR; FIG. 6
Procedure: as §1

[8] = system: tyrosinase; experiment: Gene expression of melanin-forming factors (PCR): tyrosinase; format: cell-based, mouse; conditions: B16F10, α-MSH (200 ng/ml), peptide 100, 200 uM, 24 hours, FIG. 6
[9] = system: human keratinocyte line (HaCaT); conditions: melanosomes isolated from B16F10, peptide 10, 50, 100, 200 uM, 48 hours, Fontana-Masson staining, dose-dependent, FIG. 11
Procedure: After human keratinocyte line (HaCaT) was cultured in 6-well culture plates for 24 hours, the melanosomes isolated from mouse melanoma cell line (B16F10) were pretreated for 3 hours in serum-free culture medium. Then, the cells were treated with the present peptide at different concentrations (10, 50, 100, 200 uM) or arbutin (200 uM) as a positive control, followed by incubation for 48 hours. Then, the plates were washed with PBS to remove un-transferred melanosomes, and subjected to Fontana-Masson staining to observe the inhibition of the melanosome phagocytosis by keratinocytes through a microscope.

[10] = system: tyrosinase; experiment: Measurement of tyrosinase expression level (fluorescence microscope, tyrosinase antibody); format: cell-based, mouse; conditions: B16F10, α-MSH (200 ng/ml), peptide 50, 100 uM, 48 hours; dose-dependent; FIG. 5
Procedure: Then, the cells were incubated for 48 hours, and the intracellular expression protein was stained with FITC-conjugated tyrosinase antibody (Santa Cruz biotechnology, USA) and FITC-conjugated secondary IgG antibody (Santa Cruz biotechnology, USA).

[11] = system: human keratinocyte line (HaCaT); conditions: peptide 100, 200 uM, 24 hours, Vybrant Phagocytosis Assay Kit, FIG. 12
Procedure: After human keratinocyte line (HaCaT) was cultured in 24-well culture plates for 24 hours, the cells were treated with the present peptide at different concentrations (100, 200 uM) or arbutin (200 uM) as a positive control in 0.5% FBS culture medium, followed by incubation for 24 hours. Thereafter, the inhibition of phagocytosis of the human keratinocyte line was observed using the Vybrant Phagocytosis Assay Kit (V-6694).

[12] = system: CREB; conditions: B16F10, α-MSH (200 ng/ml), peptide 50, 100 uM, 10 minutes, western blot; FIG. 8
Procedure: (§2) After melanin-forming cells (B16F10 cell line) were incubated in 6-well culture plates for 24 hours, the cells were treated with α-MSH (200 ng/ml) or the present peptide at different concentrations (50, 100 uM).

[13] = system: MITF; conditions: B16F10, α-MSH (200 ng/ml), peptide 50, 100 uM, 72 hours, western blot; FIG. 7
Procedure: as §2

[14] = system: melanin-forming cells (B16F10 cell line); conditions: B16F10, α-MSH (200 ng/ml), peptide 50, 100, 200 uM, 72 hours; dose-dependent, **P≤0.01; FIGS. 2a and 2b
Procedure: After melanin-forming cells (B16F10 cell line) dispensed in 6-well culture plates were incubated in a 37° C. incubator for 24 hours, the medium for each plate was removed and then replaced with new medium (2% serum medium). Then, the cells were treated with α-MSH (200 ng/ml), arbutin (200, 500 uM), or the peptide of the present invention at different concentrations (50, 100, 200 uM). Thereafter, the cells were incubated for 72 hours, and then the culture medium was removed. The cells were detached and then transferred into a 1.5 ml tube, followed by centrifugation at 13,000 rpm for 3 minutes. The supernatant was removed, and cell pellets were collected to observe melanin. Then, 150 μl of 2 M NaOH was added to the cell pellets to lyse intracellular melanin at 60° C. for 30 minutes. Then, 100 μl of the supernatant obtained from the lysis was added into each well of a 96-well plate, and the absorbance at 490 nm was measured.

[15] = system: tyrosinase; experiment: Protein expression of melanin-forming factors (western blot): tyrosinase; format: cell-based, mouse; conditions: B16F10, α-MSH (200 ng/ml), peptide 50, 100 uM, 72 hours, FIG. 7
[16] = system: PAR2; conditions: HaCaT, trypsin-induced, peptide 100, 200 uM, 16 hours, PCR; FIG. 9
Procedure: After a human keratinocyte line (HaCaT) was incubated in 6-well culture plates for 24 hours, the cells were treated with trypsin as an activity-inducing material and the present peptide at different concentrations (100, 200 uM). After RNA was extracted from the cells incubated for 16 hours, cDNA was prepared.
PCR was conducted using a primer pair (see table 3 below) specific to PAR2, which is one of surface receptors of keratocytes activated by a trypsin action, and then the change in the expression of each gene was observed.

tyrosinase activity in cells [1]: tyrosinase activity inhibitory effect
tyrosinase expression level [10]: tyrosinase expression inhibitory effect
Substance: Feruloyl-Ile-Trp-Ser-Leu-Asp-Thr-Gln-Tyr-Gly-Gly-Arg-Gly-Asp-COOH
amount of melanosomes transferred into keratinocytes (absorbance) [2]: phagocytosis inhibitory effect
melanin formation observed through cell morphology [3]: melanogenesis inhibitory effect
degradation of melanosomes transferred into keratinocytes [4]: promote the degradation of the melanosomes transferred into the keratinocytes
amount of melanin distributed in the basal layer of the epidermis [5]: significantly smaller than that in the control group
MITF gene expression [6]: strong effects of inhibiting MITF, tyrosinase, and TRP1 genes
TRP1 gene expression [7]: strong effects of inhibiting MITF, tyrosinase, and TRP1 genes
tyrosinase gene expression [8]: strong effects of inhibiting MITF, tyrosinase, and TRP1 genes
amount of melanosomes transferred into keratinocytes (optical microscope image analysis) [9]: phagocytosis inhibitory effect
amount of bioparticles transferred into keratinocytes (fluorescent microscopic image analysis) [11]: distinctive phagocytosis inhibitory effect
degree of phosphorylation of CREB [12]: CREB phosphorylation inhibitory effect
MITF protein expression [13]: MITF and tyrosinase protein expression inhibitory effects
melanin production [14]: melanogenesis inhibitory effect
tyrosinase protein expression [15]: MITF and tyrosinase protein expression inhibitory effects
PAR2 gene expression [16]: reduced the expression of PAR2 gene in a dose-dependent manner
